# Residues, ends and D or L forms follow the SMILES beside them.
# Experiments:
# [1] = target: T1, Pituitary adenylate cyclase-activating polypeptide type I receptor (Homo sapiens, UniProt P41586); assay: Antagonist activity at PAC1R in human SH-SY5Y cells assessed as inhibition of PACAP38-induced cAMP accumulation pre-incubated for 30 mins followed by agonist addition and measured after 75 mins by Eu-cAMP tracer based LANCE ultra cAMP assay; format: cell-based
# [2] = target: T2, Vasoactive intestinal polypeptide receptor 2 (Homo sapiens, UniProt P41587); assay: Antagonist activity at VPAC2 in human SH-SY5Y cells assessed as inhibition of PACAP38-induced cAMP accumulation pre-incubated for 30 mins followed by agonist addition and measured after 75 mins by Eu-cAMP tracer based LANCE ultra cAMP assay; format: functional, cell-based
# T2 sequence (P41587 whole entry): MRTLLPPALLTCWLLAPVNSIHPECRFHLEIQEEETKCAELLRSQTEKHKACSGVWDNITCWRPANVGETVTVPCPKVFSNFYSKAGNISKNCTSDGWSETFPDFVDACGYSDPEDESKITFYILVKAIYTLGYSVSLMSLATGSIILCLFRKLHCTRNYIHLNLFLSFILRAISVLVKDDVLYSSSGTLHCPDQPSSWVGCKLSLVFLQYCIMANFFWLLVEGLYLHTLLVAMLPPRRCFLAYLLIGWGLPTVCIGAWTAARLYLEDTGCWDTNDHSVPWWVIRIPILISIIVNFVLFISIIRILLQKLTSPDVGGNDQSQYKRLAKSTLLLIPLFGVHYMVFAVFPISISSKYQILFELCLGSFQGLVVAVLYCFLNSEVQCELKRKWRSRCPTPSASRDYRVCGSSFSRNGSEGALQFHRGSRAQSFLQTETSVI
# [3] = target: T3, Vasoactive intestinal polypeptide receptor 1 (Homo sapiens, UniProt P32241); assay: Antagonist activity at VPAC1 in human SH-SY5Y cells assessed as inhibition of PACAP38-induced cAMP accumulation pre-incubated for 30 mins followed by agonist addition and measured after 75 mins by Eu-cAMP tracer based LANCE ultra cAMP assay; format: functional, cell-based
# T3 sequence (P32241 whole entry): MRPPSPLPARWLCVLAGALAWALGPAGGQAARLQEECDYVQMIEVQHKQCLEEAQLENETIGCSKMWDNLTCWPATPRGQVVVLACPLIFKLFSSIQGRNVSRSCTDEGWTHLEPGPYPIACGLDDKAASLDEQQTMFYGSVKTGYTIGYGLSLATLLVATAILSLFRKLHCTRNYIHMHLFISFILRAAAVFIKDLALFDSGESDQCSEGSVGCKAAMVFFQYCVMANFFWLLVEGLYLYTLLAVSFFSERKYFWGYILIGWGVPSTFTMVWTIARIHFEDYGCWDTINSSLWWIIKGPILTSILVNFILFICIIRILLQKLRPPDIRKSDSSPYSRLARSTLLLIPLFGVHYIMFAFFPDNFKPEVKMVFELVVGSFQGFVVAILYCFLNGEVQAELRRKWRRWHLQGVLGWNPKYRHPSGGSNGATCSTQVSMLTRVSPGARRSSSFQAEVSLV
# [4] = target: T1, Pituitary adenylate cyclase-activating polypeptide type I receptor; assay: Agonist activity at PAC1R in human SH-SY5Y cells assessed as cAMP accumulation incubated for 60 mins by Eu-cAMP tracer based LANCE ultra cAMP assay; format: cell-based
# Target sequence in this assay (P41586 whole entry): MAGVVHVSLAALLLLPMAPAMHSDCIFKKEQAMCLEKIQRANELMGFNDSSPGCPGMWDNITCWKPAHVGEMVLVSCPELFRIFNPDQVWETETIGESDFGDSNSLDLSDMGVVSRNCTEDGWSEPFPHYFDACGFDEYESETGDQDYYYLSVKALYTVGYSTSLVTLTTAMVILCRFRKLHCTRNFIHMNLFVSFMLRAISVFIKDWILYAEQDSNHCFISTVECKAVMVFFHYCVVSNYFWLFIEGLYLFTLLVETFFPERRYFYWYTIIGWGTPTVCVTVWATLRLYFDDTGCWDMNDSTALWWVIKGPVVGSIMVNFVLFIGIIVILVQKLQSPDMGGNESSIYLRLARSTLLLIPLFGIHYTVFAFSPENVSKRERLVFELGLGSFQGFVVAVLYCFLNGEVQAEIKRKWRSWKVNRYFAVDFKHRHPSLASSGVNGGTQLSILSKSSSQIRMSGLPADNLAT
# [5] = target: T2, Vasoactive intestinal polypeptide receptor 2; assay: Agonist activity at VPAC2 in human SH-SY5Y cells assessed as cAMP accumulation incubated for 60 mins by Eu-cAMP tracer based LANCE ultra cAMP assay; format: functional, cell-based
# [6] = target: T3, Vasoactive intestinal polypeptide receptor 1; assay: Agonist activity at VPAC1 in human SH-SY5Y cells assessed as cAMP accumulation incubated for 60 mins by Eu-cAMP tracer based LANCE ultra cAMP assay; format: functional, cell-based
# [7] = Cmax in Sprague-Dawley rat at 2 mg/kg,iv measured upto 6 hrs by LC-MS analysis; format: ADME, organism-based; set-up: time < 6 hrs, dose 2 mg/kg, route iv; conditions: in vivo
# [8] = target: T4, Pituitary adenylate cyclase-activating polypeptide type I receptor (Rattus norvegicus) (UniProt P32215); assay: Antagonist activity at PAC1R in rat RG2 cells assessed as inhibition of PACAP38-induced cAMP accumulation pre-incubated for 30 mins followed by agonist addition and measured after 75 mins by Eu-cAMP tracer based LANCE ultra cAMP assay; format: cell-based; conditions: filed as antagonist, time 105.0 min
# T4 sequence (whole entry): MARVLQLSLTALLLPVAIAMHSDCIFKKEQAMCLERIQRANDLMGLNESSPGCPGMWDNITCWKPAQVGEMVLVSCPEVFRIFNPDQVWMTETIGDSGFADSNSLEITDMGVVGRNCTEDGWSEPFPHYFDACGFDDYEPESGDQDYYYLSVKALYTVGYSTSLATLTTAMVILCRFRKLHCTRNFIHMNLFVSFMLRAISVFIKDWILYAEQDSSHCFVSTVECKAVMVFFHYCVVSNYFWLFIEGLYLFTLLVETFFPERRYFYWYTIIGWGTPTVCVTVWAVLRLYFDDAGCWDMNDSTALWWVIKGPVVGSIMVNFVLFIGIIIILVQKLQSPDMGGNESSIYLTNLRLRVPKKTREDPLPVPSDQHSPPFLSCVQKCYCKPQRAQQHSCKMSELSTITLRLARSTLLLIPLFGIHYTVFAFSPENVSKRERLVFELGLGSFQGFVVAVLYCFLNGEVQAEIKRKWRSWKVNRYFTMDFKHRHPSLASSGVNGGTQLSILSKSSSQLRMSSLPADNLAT
# [9] = AUC (0-infinity) in Sprague-Dawley rat at 2 mg/kg,iv measured upto 6 hrs by LC-MS analysis; format: ADME, organism-based; set-up: dose 2 mg/kg, time < 6 hrs, route iv; conditions: in vivo
# [10] = Tmax in Sprague-Dawley rat at 10 mg/kg,sc measured upto 6 hrs by LC-MS analysis; format: ADME, organism-based; conditions: in vivo
# [11] = Volume of distribution at steady state in Sprague-Dawley rat at 2 mg/kg,iv measured upto 6 hrs by LC-MS analysis; format: ADME, organism-based; conditions: in vivo, read-out: Vdss
# [12] = system: Rattus norvegicus; assay: In vivo Antagonist activity at Maxadilan-induced Sprague-Dawley rat assessed as reduction in Maxadilan-induced blood flow at 0.3 mg/kg,sc measured after 45 mins; format: functional; set-up: scale not given: the % may be the effect or the level left; conditions: 0.75 h
# [13] = Half life in Sprague-Dawley rat at 10 mg/kg,sc measured upto 6 hrs by LC-MS analysis; format: ADME, organism-based; conditions: in vivo
# [14] = AUC (0-infinity) in Sprague-Dawley rat at 10 mg/kg,sc measured upto 6 hrs by LC-MS analysis; format: ADME, organism-based; set-up: dose 10 mg/kg, time < 6 hrs, route sc; conditions: in vivo
# [15] = Bioavailability in Sprague-Dawley rat at 10 mg/kg,sc measured upto 6 hrs by LC-MS analysis; format: ADME, organism-based; conditions: in vivo
# [16] = Half life in Sprague-Dawley rat at 2 mg/kg,iv measured upto 6 hrs by LC-MS analysis; format: ADME, organism-based; conditions: in vivo
# [17] = Cmax in Sprague-Dawley rat at 10 mg/kg,sc measured upto 6 hrs by LC-MS analysis; format: ADME, organism-based; set-up: dose 10 mg/kg, time < 6 hrs, route sc; conditions: in vivo
# [18] = target: T4, Pituitary adenylate cyclase-activating polypeptide type I receptor (Rattus norvegicus); assay: Antagonist activity at PAC1R in rat RG2 cells assessed as inhibition of Maxadilan-induced cAMP accumulation pre-incubated for 30 mins followed by agonist addition and measured after 75 mins by Eu-cAMP tracer based LANCE ultra cAMP assay; format: cell-based; conditions: filed as antagonist, time 105.0 min
# [19] = target: T1, Pituitary adenylate cyclase-activating polypeptide type I receptor; assay: Antagonist activity at PAC1R in human SH-SY5Y cells assessed as inhibition of Maxadilan-induced cAMP accumulation pre-incubated for 30 mins followed by agonist addition and measured after 75 mins by Eu-cAMP tracer based LANCE ultra cAMP assay; format: cell-based; conditions: filed as antagonist, time 105.0 min
# Target sequence in this assay (P41586 21-468 limits assumed): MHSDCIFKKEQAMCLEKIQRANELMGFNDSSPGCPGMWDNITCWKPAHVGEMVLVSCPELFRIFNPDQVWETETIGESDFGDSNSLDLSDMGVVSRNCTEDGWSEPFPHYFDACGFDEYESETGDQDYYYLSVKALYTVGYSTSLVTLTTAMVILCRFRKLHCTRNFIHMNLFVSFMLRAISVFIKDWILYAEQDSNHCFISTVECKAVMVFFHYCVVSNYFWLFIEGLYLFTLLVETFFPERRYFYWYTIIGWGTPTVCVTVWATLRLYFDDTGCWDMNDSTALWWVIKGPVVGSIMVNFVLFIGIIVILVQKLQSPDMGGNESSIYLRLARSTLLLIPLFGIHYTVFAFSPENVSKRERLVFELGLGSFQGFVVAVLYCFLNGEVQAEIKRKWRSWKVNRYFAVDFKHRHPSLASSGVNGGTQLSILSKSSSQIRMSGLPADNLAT
# [20] = Clearance in Sprague-Dawley rat at 2 mg/kg,iv measured upto 6 hrs by LC-MS analysis; format: ADME, organism-based; conditions: in vivo
structure (smiles),measurement,setting,value
CSCC[C@H](NC(=O)[C@H](CCC(N)=O)NC(=O)[C@H](CCCCN)NC(=O)[C@H](CCCNC(=N)N)NC(=O)[C@H](Cc1ccc(O)cc1)NC(=O)[C@H](CCCNC(=N)N)NC(=O)[C@H](CO)NC(=O)[C@H](Cc1ccc(O)cc1)NC(=O)[C@H](CO)NC(=O)[C@H](CC(=O)O)NC(=O)[C@@H](NC(=O)[C@@H](N)Cc1ccccc1)[C@@H](C)O)C(=O)N[C@@H](C)C(=O)N[C@H](C(=O)N[C@@H](CCCCN)C(=O)N[C@@H](CCCCN)C(=O)N[C@@H](Cc1ccc(O)cc1)C(=O)N[C@@H](CC(C)C)C(=O)N[C@@H](C)C(=O)N[C@@H](C)C(=O)N[C@H](C(=O)N[C@@H](CC(C)C)C(=O)NCC(=O)N[C@@H](CCCCN)C(=O)N[C@@H](CCCNC(=N)N)C(=O)N[C@@H](Cc1ccc(O)cc1)C(=O)N[C@@H](CCCCN)C(=O)N[C@@H](CCC(N)=O)C(=O)N[C@@H](CCCNC(=N)N)C(=O)N[C@H](C(=O)N[C@@H](CCCCN)C(=O)N[C@@H](CC(N)=O)C(=O)N[C@@H](CCCCN)C(N)=O)C(C)C)C(C)C)C(C)C,IC50,[1],3.5 nM
same,IC50,[2],4.5 nM
same,IC50,[3],118 nM
CC[C@H](C)[C@H](NC(=O)CNC(=O)[C@H](CC(=O)O)NC(=O)[C@H](CO)NC(=O)[C@@H](N)Cc1cnc[nH]1)C(=O)N[C@@H](Cc1ccccc1)C(=O)N[C@H](C(=O)N[C@@H](CC(=O)O)C(=O)N[C@@H](CO)C(=O)N[C@@H](Cc1ccc(O)cc1)C(=O)N[C@@H](CO)C(=O)N[C@@H](CCCNC(=N)N)C(=O)N[C@@H](Cc1ccc(O)cc1)C(=O)N[C@@H](CCCNC(=N)N)C(=O)N[C@@H](CCCCN)C(=O)N[C@@H](CCC(N)=O)C(=O)N[C@@H](CCSC)C(=O)N[C@@H](C)C(=O)N[C@H](C(=O)N[C@@H](CCCCN)C(=O)N[C@@H](CCCCN)C(=O)N[C@@H](Cc1ccc(O)cc1)C(=O)N[C@@H](CC(C)C)C(=O)N[C@@H](C)C(=O)N[C@@H](C)C(=O)N[C@H](C(=O)N[C@@H](CC(C)C)C(=O)NCC(=O)N[C@@H](CCCCN)C(=O)N[C@@H](CCCNC(=N)N)C(=O)N[C@@H](CCCCN)C(=O)N[C@@H](Cc1ccc(O)cc1)C(=O)N[C@@H](CCCCN)C(=O)N[C@@H](CCC(N)=O)C(=O)N[C@@H](CCCNC(=N)N)C(=O)N[C@H](C(=O)N[C@@H](CCCCN)C(=O)N[C@@H](CC(N)=O)C(=O)N[C@@H](CCCCN)C(N)=O)C(C)C)C(C)C)C(C)C)[C@@H](C)O,EC50,[4],0.03 nM
same,EC50,[5],0.06 nM
same,EC50,[6],0.03 nM
"CC[C@H](C)[C@H](NC(=O)[C@H](C)NC(=O)[C@H](CCCCN)NC(=O)[C@H](CCCNC(=N)N)NC(=O)[C@H](Cc1ccccc1)NC(=O)[C@H](CCC(N)=O)NC(=O)[C@@H]1CSSC[C@H](N)CC(=O)N[C@@H](CC(=O)O)C(=O)N[C@@H](C)C(=O)N[C@@H]([C@@H](C)O)C(=O)N1)C(=O)N[C@@H](CC(=O)O)C(=O)N[C@@H](CC(=O)O)C(=O)N[C@H]1CSSC[C@@H](C(=O)N[C@@H](CCSC)C(=O)N[C@@H](CCCCN)C(=O)N[C@@H](CCC(N)=O)C(=O)N[C@@H](CCCCN)C(=O)N[C@@H](CCCCN)C(=O)N[C@@H](CCCCN)C(=O)N[C@@H](CCC(=O)O)C(=O)N[C@@H](Cc2c[nH]c3ccccc23)C(=O)N[C@@H](CCCCN)C(=O)N[C@@H](C)C(=O)NCC(N)=O)NC(=O)[C@H](C)NC(=O)[C@H](CCCCN)NC(=O)[C@H](Cc2ccccc2)NC(=O)[C@H](C(C)C)NC(=O)[C@H](CO)NC(=O)[C@H](CO)NC(=O)[C@H](Cc2cnc[nH]2)NC(=O)[C@H](Cc2ccc(O)cc2)NC(=O)[C@H](C)NC(=O)[C@H](CCC(N)=O)NC(=O)[C@H](CCCNC(=N)N)NC(=O)[C@H](C)NC1=O (HELM PEPTIDE1{[N[C@@H](CS[*:3])CC(=O)[*:2]].D.A.T.C.Q.F.R.K.A.I.D.D.C.A.R.Q.A.Y.H.S.S.V.F.K.A.C.M.K.Q.K.K.K.E.W.K.A.G.[am]}$PEPTIDE1,PEPTIDE1,1:R3-5:R3|PEPTIDE1,PEPTIDE1,14:R3-27:R3$$$V2.0)",Cmax,[7],4170 nM
same,IC90,[8],0.17 nM
same,AUC(0-inf),[9],1.16 µM·h
same,IC90,"[1]; filed as antagonist, time 105.0 min",0.42 nM
same,Tmax,[10],15 min
same,Vd,[11],0.217 L/kg
same,Activity,[12],110%
same,half-life,[13],41.3 min
same,AUC(0-inf),[14],1.65 µM·h
same,bioavailability,[15],28%
same,half-life,[16],58.1 min
same,Cmax,[17],1110 nM
same,IC90,[18],0.14 nM
same,IC90,[19],0.12 nM
same,clearance,[20],6.55 mL/min/kg

# Source: ChEMBL document CHEMBL5214896, “Discovery of Selective Pituitary Adenylate Cyclase 1 Receptor (PAC1R) Antagonist Peptides Potent in a Maxadilan/PACAP38-Induced Increase in Blood Flow Pharmacodynamic Model” (J Med Chem, 2021)
